Each block holds one molecule with its values, some of them ahead of it.
Tests used:
Adenosine A2A receptor = Adenosine A2A receptor (Homo sapiens (Human), UniProt P29274); assay: A2A Tag-Lite HTRF assay; assay type: binding; conditions: Tag-Lite Adenosine A2A labeled cells, displacement of A2A Receptor Red antagonist fluorescent ligand 12.5 nM; read-out: A2A_Ki
Text: Example C. A2A Tag-Lite® HTRF Assay
The final concentration of DMSO was 1%.

[1] = molecular target: human adenosine A2B receptor (Homo sapiens (Human), UniProt P29275); assay: Adenosine A2B Receptor Cyclic AMP GS Assay; assay type: cell-based; conditions: HEK-293 cells expressing human A2B receptor, agonist NECA 12 nM, cAMP accumulation; read-out: A2B_cAMP_EC50
Procedure: Example B. Adenosine A2B Receptor Cyclic AMP GS Assay
Stably transfected HEK-293 cells expressing the human adenosine A2B receptor (Perkin Elmer) were maintained in MEM culture medium with 10% FBS and 100 μg/mL Geneticin (Life Technologies). 18 to 24 hours prior to assay, geneticin was removed from culture. The cisbio cAMP-GS Dynamic kit utilizing the FRET (Fluorescence Resonance Energy Transfer) technology was used to measure cAMP accumulation in the cells. Compounds of the present disclosure at an appropriate concentration were mixed with 10000 cells/well in white 96 well half area plates (Perkin Elmer) for 30 min at room temperature gently shaking. Agonist, NECA (R&D Technologies) at 12 nM was added to each well for 60 min at room temperature gently shaking. Detection reagents, d2-labeled cAMP (acceptor) and anti-cAMP cryptate (donor) were added to each well for 60 min at RT gently shaking. Plates were read on Pherastar (BMG Labtech), fluorescence ratio 665/620 was calculated and EC50 determination was performed by fitting the curve of percent of control versus the log of the compound concentration using GraphPad Prism.

Chain of human adenosine A2B receptor (P29275 whole entry): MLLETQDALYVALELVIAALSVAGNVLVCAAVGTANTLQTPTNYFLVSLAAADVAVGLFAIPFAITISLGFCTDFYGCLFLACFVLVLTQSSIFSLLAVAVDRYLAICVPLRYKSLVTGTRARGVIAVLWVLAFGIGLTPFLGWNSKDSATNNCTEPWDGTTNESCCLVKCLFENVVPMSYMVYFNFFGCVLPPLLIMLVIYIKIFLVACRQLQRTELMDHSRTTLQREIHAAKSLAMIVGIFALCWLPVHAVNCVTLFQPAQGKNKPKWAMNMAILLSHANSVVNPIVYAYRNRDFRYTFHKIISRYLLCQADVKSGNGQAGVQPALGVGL
Chain of Adenosine A2A receptor (P29274 whole entry): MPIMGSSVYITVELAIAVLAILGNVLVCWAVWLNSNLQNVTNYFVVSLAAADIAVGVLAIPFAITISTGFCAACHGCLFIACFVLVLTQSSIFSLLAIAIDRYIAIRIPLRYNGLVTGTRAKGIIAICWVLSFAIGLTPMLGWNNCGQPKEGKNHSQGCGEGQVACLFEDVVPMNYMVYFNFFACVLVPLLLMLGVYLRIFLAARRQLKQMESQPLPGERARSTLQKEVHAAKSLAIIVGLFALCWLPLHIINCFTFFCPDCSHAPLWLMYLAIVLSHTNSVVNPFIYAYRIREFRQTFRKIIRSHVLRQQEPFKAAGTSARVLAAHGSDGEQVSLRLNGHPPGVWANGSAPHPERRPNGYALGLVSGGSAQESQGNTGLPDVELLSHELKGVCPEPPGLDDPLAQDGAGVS

Ki (Adenosine A2A receptor): < 10 nM | EC50 [1]: 100 to 1000 nM
SMILES: N#Cc1cccc(-c2cc3nc(CC4CCCCC4)nn3c(N)n2)c1 [Example 4, 3-(5-Amino-2-(cyclohexylmethyl)-[1,2,4]triazolo[1,5-c]pyrimidin-7-yl)benzonitrile]

Ki (Adenosine A2A receptor): < 10 nM | EC50 [1]: 10 to 100 nM
SMILES: Cn1ccnc1Cc1nc2cc(-c3cccc(C#N)c3)nc(N)n2n1 [Example 7, 3-(5-Amino-2-((1-methyl-1H-imidazol-2-yl)methyl)-[1,2,4]triazolo[1,5-c]pyrimidin-7-yl)benzonitrile]

Ki (Adenosine A2A receptor): < 10 nM | EC50 [1]: 100 to 1000 nM
SMILES: N#Cc1cccc(-c2cc3nc(Nc4ccccc4)nn3c(N)n2)c1 [Example 10, 3-(5-Amino-2-(phenylamino)-[1,2,4]triazolo[1,5-c]pyrimidin-7-yl)benzonitrile]

Ki (Adenosine A2A receptor): < 10 nM | EC50 [1]: 10 to 100 nM
SMILES: N#Cc1cccc(-c2cc3nc(Cc4ccccc4)cn3c(N)n2)c1 [Example 11, 3-(5-Amino-2-benzylimidazo[1,2-c]pyrimidin-7-yl)benzonitrile]

Ki (Adenosine A2A receptor): < 10 nM | EC50 [1]: 10 to 100 nM
SMILES: Cc1c(C#N)cccc1-c1cc2nc(C(O)c3c(F)cccc3F)nn2c(N)n1 (centres unmarked) [Example 13, 3-(5-Amino-2-((2,6-difluorophenyl)(hydroxy)methyl)-[1,2,4]triazolo[1,5-c]pyrimidin-7-yl)-2-methylbenzonitrile]

Ki (Adenosine A2A receptor): < 10 nM | EC50 [1]: < 10 nM
SMILES: N#Cc1cccc(-c2nc(N)n3nc(C(O)c4c(F)cccc4F)nc3c2C#N)c1F (centres unmarked) [Example 15, 5-Amino-7-(3-cyano-2-fluorophenyl)-2-((2,6-difluorophenyl)(hydroxy)methyl)-[1,2,4]triazolo[1,5-c]pyrimidine-8-carbonitrile]

Ki (Adenosine A2A receptor): < 10 nM | EC50 [1]: 10 to 100 nM
SMILES: N#Cc1cccc(-c2cc3nc(Cc4c(F)cccc4CNC4CCN(CC(=O)O)C4=O)nn3c(N)n2)c1F (centres unmarked) [Example 19, 2-(3-((2-((5-Amino-7-(3-cyano-2-fluorophenyl)-[1,2,4]triazolo[1,5-c]pyrimidin-2-yl)methyl)-3-fluorobenzyl)amino)-2-oxopyrrolidin-1-yl)acetic acid]

Ki (Adenosine A2A receptor): < 10 nM | EC50 [1]: 10 to 100 nM
SMILES: CC(=O)N[C@H]1CCN(Cc2cccc(F)c2Cc2nc3cc(-c4cccc(C#N)c4F)nc(N)n3n2)C1 [Example 25, (S)—N-(1-(2-((5-Amino-7-(3-cyano-2-fluorophenyl)-[1,2,4]triazolo[1,5-c]pyrimidin-2-yl)methyl)-3-fluorobenzyl)pyrrolidin-3-yl)acetamide]

Ki (Adenosine A2A receptor): < 10 nM | EC50 [1]: 10 to 100 nM
SMILES: N#Cc1cccc(-c2cc3nc(Cc4c(F)cccc4CN4CC[C@H](C#N)C4)nn3c(N)n2)c1F [Example 27, (S)-1-(2-((5-Amino-7-(3-cyano-2-fluorophenyl)-[1,2,4]triazolo[1,5-c]pyrimidin-2-yl)methyl)-3-fluorobenzyl)pyrrolidine-3-carbonitrile]

More lines, now with the values behind:

SMILES: CN1CCC(NCc2cccc(F)c2C(O)c2nc3cc(-c4cccc(C#N)c4F)nc(N)n3n2)C1=O (single isomer, unassigned) [Example 16, 3-(5-Amino-2-((2-fluoro-6-(((1-methyl-2-oxopyrrolidin-3-yl)amino)methyl)phenyl)(hydroxy)methyl)-[1,2,4]triazolo[1,5-c]pyrimidin-7-yl)-2-fluorobenzonitrile]
Ki (Adenosine A2A receptor): < 10 nM | EC50 [1]: 10 to 100 nM

SMILES: N#Cc1cccc(-c2cc3nc(C(O)c4ccccc4)nn3c(N)n2)c1 (centres unmarked) [Example 1, 3-(5-Amino-2-(hydroxy(phenyl)methyl)-[1,2,4]triazolo[1,5-c]pyrimidin-7-yl)benzonitrile]
Ki (Adenosine A2A receptor): < 10 nM | EC50 [1]: < 10 nM

SMILES: N#Cc1cccc(-c2cc3nc(Cc4ccccc4)nn3c(N)n2)c1 [Example 2, 3-(5-Amino-2-benzyl-[1,2,4]triazolo[1,5-c]pyrimidin-7-yl)benzonitrile]
Ki (Adenosine A2A receptor): < 10 nM | EC50 [1]: < 10 nM

SMILES: N#Cc1cccc(-c2cc3nc(Cc4ccccn4)nn3c(N)n2)c1 [Example 3, 3-(5-Amino-2-(pyridin-2-ylmethyl)-[1,2,4]triazolo[1,5-c]pyrimidin-7-yl)benzonitrile]
Ki (Adenosine A2A receptor): < 10 nM | EC50 [1]: < 10 nM

SMILES: Cn1cc(-c2cccc(Cc3nc4cc(-c5cccc(C#N)c5)nc(N)n4n3)c2)cn1 [Example 5, 3-(5-Amino-2-(3-(1-methyl-1H-pyrazol-4-yl)benzyl)-[1,2,4]triazolo[1,5-c]pyrimidin-7-yl)benzonitrile]
Ki (Adenosine A2A receptor): < 10 nM | EC50 [1]: 100 to 1000 nM

SMILES: N#Cc1cccc(-c2cc3nc(CN4CCCC4=O)nn3c(N)n2)c1 [Example 6, 3-(5-Amino-2-((2-oxopyrrolidin-1-yl)methyl)-[1,2,4]triazolo[1,5-c]pyrimidin-7-yl)benzonitrile]
Ki (Adenosine A2A receptor): < 10 nM | EC50 [1]: 100 to 1000 nM

SMILES: N#Cc1cccc(-c2cc3nc(C(N)c4ccccc4)nn3c(N)n2)c1 (centres unmarked) [Example 8, 3-(5-Amino-2-(amino(phenyl)methyl)-[1,2,4]triazolo[1,5-c]pyrimidin-7-yl)benzonitrile]
Ki (Adenosine A2A receptor): < 10 nM | EC50 [1]: 100 to 1000 nM

SMILES: N#Cc1cccc(-c2nc(N)n3nc(Cc4ccccc4)nc3c2CO)c1 [Example 9, 3-(5-Amino-2-benzyl-8-(hydroxymethyl)-[1,2,4]triazolo[1,5-c]pyrimidin-7-yl)benzonitrile]
Ki (Adenosine A2A receptor): < 10 nM | EC50 [1]: 10 to 100 nM

SMILES: CCNC(=O)c1nc2cc(-c3cccc(C#N)c3)nc(N)n2n1 [Example 12, 5-Amino-7-(3-cyanophenyl)-N-ethyl-[1,2,4]triazolo[1,5-c]pyrimidine-2-carboxamide]
Ki (Adenosine A2A receptor): < 10 nM | EC50 [1]: > 1000 nM

SMILES: N#Cc1cccc(-c2cc3nc(C(O)c4c(F)cccc4F)nn3c(N)n2)c1F (centres unmarked) [Example 14, 3-(5-Amino-2-((2,6-difluorophenyl)(hydroxy)methyl)-[1,2,4]triazolo[1,5-c]pyrimidin-7-yl)-2-fluorobenzonitrile]
Ki (Adenosine A2A receptor): < 10 nM | EC50 [1]: < 10 nM

SMILES: CN1CCC2(CN(Cc3cccc(F)c3C(O)c3nc4cc(-c5cccc(C#N)c5F)nc(N)n4n3)C2)C1=O (centres unmarked) [Example 17, 3-(5-Amino-2-((2-fluoro-6-((6-methyl-5-oxo-2,6-diazaspiro[3.4]octan-2-yl)methyl)phenyl)(hydroxy)methyl)-[1,2,4]triazolo[1,5-c]pyrimidin-7-yl)-2-fluorobenzonitrile]
Ki (Adenosine A2A receptor): < 10 nM | EC50 [1]: 10 to 100 nM

SMILES: CCN(Cc1cccc(F)c1C(O)c1nc2cc(-c3cccc(C#N)c3F)nc(N)n2n1)[C@H]1CCNC1=O (stereo partly drawn) [Example 18, 3-(5-Amino-2-((2-((ethyl((S)-2-oxopyrrolidin-3-yl)amino)methyl)-6-fluorophenyl)(hydroxy)methyl)-[1,2,4]triazolo[1,5-c]pyrimidin-7-yl)-2-fluorobenzonitrile]
Ki (Adenosine A2A receptor): < 10 nM | EC50 [1]: < 10 nM

SMILES: N#Cc1cccc(-c2cc3nc(Cc4c(F)cccc4CN[C@@H]4CCOC4=O)nn3c(N)n2)c1F [Example 20, (R)-3-(5-Amino-2-(2-fluoro-6-(((2-oxotetrahydrofuran-3-yl)amino)methyl)benzyl)-[1,2,4]triazolo[1,5-c]pyrimidin-7-yl)-2-fluorobenzonitrile]
Ki (Adenosine A2A receptor): < 10 nM | EC50 [1]: < 10 nM

SMILES: N#Cc1cccc(-c2cc3nc(Cc4c(F)cccc4CN[C@@H]4CCNC4=O)nn3c(N)n2)c1F [Example 21, (R)-3-(5-Amino-2-(2-fluoro-6-(((2-oxopyrrolidin-3-yl)amino)methyl)benzyl)-[1,2,4]triazolo[1,5-c]pyrimidin-7-yl)-2-fluorobenzonitrile]
Ki (Adenosine A2A receptor): < 10 nM | EC50 [1]: < 10 nM

SMILES: N#Cc1cccc(-c2cc3nc(Cc4c(F)cccc4CN[C@H]4CCNC4=O)nn3c(N)n2)c1F [Example 22, (S)-3-(5-Amino-2-(2-fluoro-6-(((2-oxopyrrolidin-3-yl)amino)methyl)benzyl)-[1,2,4]triazolo[1,5-c]pyrimidin-7-yl)-2-fluorobenzonitrile]
Ki (Adenosine A2A receptor): < 10 nM | EC50 [1]: < 10 nM

SMILES: N#Cc1cccc(-c2cc3nc(Cc4c(F)cccc4CN4CCC(c5nn[nH]n5)C4)nn3c(N)n2)c1F (centres unmarked) [Example 23, 3-(2-(2-((3-(2H-Tetrazol-5-yl)pyrrolidin-1-yl)methyl)-6-fluorobenzyl)-5-amino-[1,2,4]triazolo[1,5-c]pyrimidin-7-yl)-2-fluorobenzonitrile]
Ki (Adenosine A2A receptor): < 10 nM | EC50 [1]: 10 to 100 nM

SMILES: CCN1CCC(NCc2cccc(F)c2Cc2nc3cc(-c4cccc(C#N)c4F)nc(N)n3n2)C1=O (centres unmarked) [Example 24, 3-(5-Amino-2-(2-(((1-ethyl-2-oxopyrrolidin-3-yl)amino)methyl)-6-fluorobenzyl)-[1,2,4]triazolo[1,5-c]pyrimidin-7-yl)-2-fluorobenzonitrile]
Ki (Adenosine A2A receptor): < 10 nM | EC50 [1]: 10 to 100 nM

SMILES: N#Cc1cccc(-c2cc3nc(Cc4c(F)cccc4CN4CCC[C@H]4c4nn[nH]n4)nn3c(N)n2)c1F [Example 26, (S)-3-(2-(2-((2-(2H-Tetrazol-5-yl)pyrrolidin-1-yl)methyl)-6-fluorobenzyl)-5-amino-[1,2,4]triazolo[1,5-c]pyrimidin-7-yl)-2-fluorobenzonitrile]
Ki (Adenosine A2A receptor): < 10 nM | EC50 [1]: < 10 nM

SMILES: CN1CCC2(CN(Cc3cccc(F)c3Cc3nc4cc(-c5cccc(C#N)c5F)nc(N)n4n3)C2)C1=O [Example 28, 3-(5-Amino-2-(2-fluoro-6-((6-methyl-5-oxo-2,6-diazaspiro[3.4]octan-2-yl)methyl)benzyl)-[1,2,4]triazolo[1,5-c]pyrimidin-7-yl)-2-fluorobenzonitrile]
Ki (Adenosine A2A receptor): < 10 nM | EC50 [1]: 10 to 100 nM

Source: patent US11168089B2, “Fused pyrimidine derivatives as A2A / A2B inhibitors” (Incyte Corporation, priority 2018, dated 2021)
